Here are results for 18 compounds from patent publication US7629376B2, “3-substituted-5- and 6-aminoalkyl indole-2-carboxylic acid amides and related analogs as inhibitors of casein kinase I” (Aventis Pharmaceuticals Inc., priority 2004, dated 2009).

The subject of data set [1] is Mper1-luc Rat-1 fibroblasts (P2C4). Nature of the data set: Cellular Circadian Assay (Mper1-luc reporter period lengthening). Conditions: effective micromolar concentration that induces a 1 hour lengthening of period. It counts as cell-based. How it is done: Cellular Circadian Assay Experimental Procedures
Stable transfection: Co-transfect Rat-1 fibroblast cultures at 30-50% confluence with vectors containing the Zeocin resistance selectable marker for stable transfection and an mPer1 promoter-driven luciferase reporter gene. After 24-48 hours, split the cultures onto 96 well plates and maintain in growth media supplemented with 50-100 μg/mL Zeocin (Invitrogen #45-0430) for 10-14 days. Assess Zeocin-resistant stable transfectants for reporter expression by supplementing growth media with 100 μM luciferin (Promega #E1603) and assaying luciferase activity on a TopCount scintillation counter (Packard Model #C384V00). […] Select Mper1-luc Rat-1 fibroblasts clone P2C4 for compound testing.
After synchronization, rinse cultures with 100 μL EMEM (Cellgro #10-010-CV) for 10 minutes at room temperature. […] Add compounds to be tested for circadian effects to CO2-independent media in 0.3% DMSO (final concentration).
Estimate in vivo luciferase activity by measuring relative light output on a TopCount scintillation counter (Packard Model #C384V00). Transfer plates from incubator to reader using an ORCA robotic arm (Beckman Instruments) and SAMI-NT automated scheduling software (Version 3.3; SAGIAN/Beckman Instruments).
Data Analysis Use Microsoft Excel and XLfit (Version 2.0.9; IDBS) to import, manipulate and graph data. Perform period analysis either by determining the interval between relative light output minima over several days or by Fourier Transform. […] Analyze the data by fitting a hyperbolic curve to the data expressed as period change (y-axis) versus the concentration of test compound (x-axis) in XLfit and interpolate the EC ? t+1h from this curve.

For data set [2], the target named is T1, casein kinase 1ε (Homo sapiens, UniProt P49674).
T1 construct: made in house
T1 sequence (P49674 whole entry): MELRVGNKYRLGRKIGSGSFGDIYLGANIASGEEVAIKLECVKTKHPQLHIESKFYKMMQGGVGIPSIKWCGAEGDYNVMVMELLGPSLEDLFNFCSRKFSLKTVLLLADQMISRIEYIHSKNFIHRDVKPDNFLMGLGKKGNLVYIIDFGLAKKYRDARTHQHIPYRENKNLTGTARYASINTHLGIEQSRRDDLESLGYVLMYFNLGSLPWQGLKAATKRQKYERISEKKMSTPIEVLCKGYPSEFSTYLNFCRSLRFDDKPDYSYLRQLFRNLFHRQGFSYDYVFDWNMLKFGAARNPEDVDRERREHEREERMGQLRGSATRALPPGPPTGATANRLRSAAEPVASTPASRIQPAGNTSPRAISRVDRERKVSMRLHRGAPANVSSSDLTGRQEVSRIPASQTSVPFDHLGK
The experiment in a line: Casein Kinase Epsilon 33P-ATP Filter Plate Assay for Screening CK1ε Inhibitors. It counts as biochemical.
Description: Casein Kinase Epsilon ^33P-ATP Filter Plate Assay for Screening CK1ε Inhibitors
Purpose: This assay measures the ability of compounds to inhibit the phosphorylation of the substrate casein by the enzyme casein kinase 1ε using an in vitro ^33P-ATP filtration assay.
The above are stored as 100 μL aliquots at minus 80° C. • Compounds: • Supply compounds for testing as frozen 10 mM compound stock dissolved in 100% DMSO. Assay Conditions: • Final total assay volume per well is equal to 50 μL that one prepares as follows: • 5 μL of diluted compound stock (10, 1, 0.1, 0.01 or 0.001 μM), • 5 μL of dephosphorylated casein final concentration 0.2 μg/μL, • 20 μL of CK1ε final concentration 3 ng/μL, and • 20 μL of γ-^33P-ATP final concentration 0.02 μCi/μL mixed with cold ATP (10 μM final). Methodology: • 1. Prepare 500 mL of fresh assay buffer: 50 mM Tris pH 7.5, 10 nm MgCl2, 2 mM DTT and 1 mM EGTA • 2. Obtain compounds to be evaluated as 10 μL of 10 mM stock dissolved in 100% DMSO. Use a Biomek 2000 liquid handling robot, make serial dilutions to yield 10, 1, 0.1, 0.01 and 0.001 μM final compound dilutions added as 5 μL additions to Falcon U bottom plates. […] A routine screening assay will consist of 32 compounds, which equals 4 assay plates. • 3.
• 4. Add 5 μL of compound as indicated, then add 5 μL of dephosphorylated casein (dissolved in distilled H20) (0.2 μg/μL) and 20 μL CK1ε (3 ng/μL) to the appropriate wells. • 5. Finally add 20 μL γ-^33P-ATP (0.02 μCi/μL)/10 μM cold ATP (equals approximately 2×10^6 CPM per well). • 6. Vortes the Falcon U-Bottom assay plate containing the above 50 μL reaction volume and then incubate at room temperature for 2 hours. • 7. At the end of 2 hours, stop the reaction by the addition of 65 μL of ice cold 2 mM cold ATP (made up in assay buffer) to the assay plates using a Beckman Multimek. • 8. At the same time add 25 μL 100% ice cold TCA made up in distilled H20 to a matching number of Millipore MAPH filter plates. • 9. Using a handheld 8-channel pipettor, transfer 100 μL of the reaction mixture from the Falcon U-Bottom Plate to the Millipore MAPH filter plates presoaked with TCA. • 10. Mix the Millipore MAPH filter plates gently and allow to sit at room temperature for at least 30 minutes to precipitate the proteins. • 11. After 30 minutes, place the filter plates on a Millipore vacuum manifold and filter at no more than 8 mm Hg as the MAPH filters tend to “air lock” at higher vacuum settings. • 12. […] Allow the plates to dry overnight at room temperature. The next day add 40 μL Packard Microscint-20 Scintillation Fluid per well using a Titertek Multidrop dispenser; seal the plates and count for 2 minutes/well in a Packard Topcount NXT Scintillation Counter (to provide CPM values/well). Calculation: • 1. Import Counts Per Minute (CPM) data into a proprietary data calculation and archiving database (Activity Base by IDBS version 5.0). • 2. Column 1 for each plate reflects total phosphorylation activity of the enzyme in the absence of any inhibiting compound and thus represents 100%. Column 12 reflects any nonspecific phosphorylation/retained radioactivity activity in the absence of inhibiting compound and enzyme. Typically one observes approximately 1% of Total CPMs that are “nonspecific”. • 3.

One may read the Ki as a dissociation constant, usually derived from enzyme kinetics or from competition with a known ligand. High values mean weaker binding, low ones tighter binding. Regarding `NC(=O)c1[nH]c2ccc(CN3CCN(c4ncccn4)CC3)cc2c1Sc1ccccc1` [Ip, 3-Phenylsulfanyl-5-(4-pyrimidin-2-yl-piperazin-1-ylmethyl)-1H-indole-2-carboxylic acid amide], the “Cell Assay ECΔτ1h” value in data set [1] amounted to 1.87 µM. The Ki in data set [2] amounted to 74 nM.
As usually defined, the melting point is the temperature of the solid-liquid transition. The compound `CC(C)(C)OC(=O)NCc1ccc2c(Sc3ccccc3)c(C(N)=O)[nH]c2c1` [IIb, (2-Carbamoyl-3-phenylsulfanyl-1H-indol-6-ylmethyl)-carbamic acid tert-butyl ester] had a melting point of 118 to 121 °C. Further, the Ki in data set [2] worked out at 2330 nM.
`NC(=O)c1[nH]c2ccc(CNC3CC4CCC3C4)cc2c1Sc1ccccc1` (stereo not shown) [It]: the “Cell Assay ECΔτ1h” value in data set [1] is 2.70 µM. This compound also registered a Ki in data set [2] of 450 nM.
The matching figures for `NC(=O)c1[nH]c2ccc(CN3CCN(CC=Cc4ccccc4)CC3)cc2c1Sc1ccccc1` [Iq, 5-[4-(3-Phenylpropenyl)piperazin-1-ylmethyl]-3-phenylsulfanyl-1H-indole-2-carboxylic acid amide]: greater than 3 µM and 310 nM.
In the case of `CC(CO)NCc1ccc2[nH]c(C(N)=O)c(Sc3ccccc3)c2c1` (stereo not shown) [Ix, 5-[(2-Hydroxy-1-methyl-ethylamino)methyl]-3-phenylsulfanyl-1H-indole-2-carboxylic acid amide], the melting point was in the range of 192.7 to 193.6 °C. In addition, affinity in data set [2] was put at a Ki of 130 nM.
Turning to `NC(=O)c1[nH]c2ccc(CNc3ccccc3F)cc2c1Sc1ccccc1` [Iai, 5-[(2-Fluorophenylamino)methyl]-3-phenylsulfanyl-1H-indole-2-carboxylic acid amide], the “Cell Assay ECΔτ1h” value in data set [1] amounted to 6.91 µM. This compound also displayed a Ki in data set [2] of 6850 nM.
The matching figures for `NC(=O)c1[nH]c2ccc(CN3CCCNCC3)cc2c1Sc1ccccc1` [Is, 5-[1,4]Diazepan-1-ylmethyl-3-phenylsulfanyl-1H-indole-2-carboxylic acid amide]: 7.85 µM and 120 nM.
Consider `CC(C)(C)OC(=O)N1CCCN(Cc2ccc3[nH]c(C(N)=O)c(Sc4ccccc4)c3c2)CC1` [Ir, 4-(2-Carbamoyl-3-phenylsulfanyl-1H-indol-5-ylmethyl)-[1,4]diazepane-1-carboxylic acid tert-butyl ester], for which the “Cell Assay ECΔτ1h” value in data set [1] is greater than 10 µM. Moreover, in data set [2], the Ki was 130 nM.
As to “3-(3-Fluorophenylsulfanyl)-5-methylaminomethyl-1H-indole-2-carboxylic acid amide [Ie]”, in data set [1], the “Cell Assay ECΔτ1h” value turned out to be 3.34 µM.
As to `NCc1ccc2[nH]c(C(N)=O)c(Sc3ccccc3)c2c1` [Ia, 5-Aminomethyl-3-phenylsulfanyl-1H-indole-2-carboxylic acid amide], in data set [1], the “Cell Assay ECΔτ1h” value worked out at 0.44 µM. The Ki in data set [2] came to 70 nM.
As to “3-(3-Chlorophenylsulfanyl)-5-methylaminomethyl-1H-indole-2-carboxylic acid amide”, the “Cell Assay ECΔτ1h” value in data set [1] worked out at 5.67 µM.
Consider `NC(=O)CC[C@H](N)C(=O)NCc1ccc2c(Sc3ccccc3)c(C(N)=O)[nH]c2c1` [IIr, 2-Aminopentanedioic acid 5-amide 1-[(2-carbamoyl-3-phenylsulfanyl-1H-indol-6-ylmethyl)-amide]], for which the affinity in data set [2], expressed as Ki, was 270 nM.
As to `NC(=O)c1[nH]c2cc(CNCc3cccc(C(F)(F)F)c3F)ccc2c1Sc1ccccc1` [IIab, 6-[(2-Fluoro-3-trifluoromethylbenzylamino)methyl]-3-phenylsulfanyl-1H-indole-2-carboxylic acid amide], the inhibition constant (Ki) in data set [2] came out at 4040 nM. Compared with the last compound, the Ki is about 15-fold higher.
Regarding `CCCCCNCc1ccc2[nH]c(C(N)=O)c(Sc3ccccc3)c2c1` [Im, 5-Pentylaminomethyl-3-phenylsulfanyl-1H-indole-2-carboxylic acid amide], the “Cell Assay ECΔτ1h” value in data set [1] was determined as 4.55 µM. Also, in data set [2], the Ki turned out to be 64 nM.
`CC(NCc1ccc2[nH]c(C(N)=O)c(Sc3ccccc3)c2c1)C(N)=O` (stereo not shown) [Iaf, 5-[(1-Carbamoylethylamino)methyl]-3-phenylsulfanyl-1H-indole-2-carboxylic acid amide]: the affinity in data set [2] corresponds to a Ki of 390 nM.
Compound `NC(=O)c1[nH]c2cc(CNC(=O)C(N)CC(=O)O)ccc2c1Sc1ccccc1` (stereo not shown) [IIae, 3-Amino-N-(2-carbamoyl-3-phenylsulfanyl-1H-indol-6-ylmethyl)succinamic acid] registered a Ki in data set [2] of 780 nM. This Ki lies about 2-fold higher than the previous one.
Take `NC(=O)c1[nH]c2cc(CN(C/C=C/c3ccco3)C/C=C/c3ccco3)ccc2c1Sc1ccccc1` [IIag]: in data set [2], the affinity, expressed as Ki, was 6920 nM.
In the case of `NC(=O)c1[nH]c2cc(CNCc3ccc(C=Cc4ccccc4)cc3)ccc2c1Sc1ccccc1` [IIao, 3-Phenylsulfanyl-6-[(4-styrylbenzylamino)methyl]-1H-indole-2-carboxylic acid amide], in data set [2], the Ki is greater than 10000 nM.
